Source: US11021521B2, “Pore-modified gram-negative bacteria and uses thereof” (priority 2015, dated 2021)
≈ marks a conversion by molar mass, not a printed value. Where “and” joins values, the source holds several entries; their conditions need not be identical. Identical values can stand only once. Like-named read-outs stand apart in the source and are kept apart here.

Experiments:
[1] = system: P. aeruginosa PAO1-LAC-EcPore (hyperporinated); assay: microbe, parasite or virus in culture; type: cell-based; details: for MIC: PAO1-LAC-EcPore, at least three independent measurements
[2] = system: P. aeruginosa PAO1-LAC (wild type, empty cassette); assay: microbe, parasite or virus in culture; type: cell-based; details: at least three independent measurements
[3] = system: A. baumannii Ab-ARA (wild type, empty cassette); assay: microbe, parasite or virus in culture; type: cell-based; details: at least three independent measurements
[4] = system: P. aeruginosa PaΔ3-LAC-EcPore (efflux-deficient, hyperporinated); assay: microbe, parasite or virus in culture; type: cell-based
[5] = system: P. aeruginosa cells (PAO1-LAC and derivatives); assay: Fluorescent probe uptake assay, P. aeruginosa strains
[6] = system: A. baumannii Ab-ARA-EcPore (hyperporinated); assay: microbe, parasite or virus in culture; type: cell-based; details: for MIC: Ab-ARA-EcPore, at least three independent measurements
[7] = system: B. thailandensis cells (Bt-RHA and derivatives)
[8] = system: B. thailandensis BtΔ2-RHA (efflux-deficient); assay: microbe, parasite or virus in culture; type: cell-based
[9] = system: A. baumannii AbΔ3-ARA-EcPore (efflux-deficient, hyperporinated); assay: microbe, parasite or virus in culture; type: cell-based; details: for MIC: AbΔ3-ARA-EcPore; for Fold change of MIC by efflux inactivation plus hyperporination: AbΔ3-ARA-EcPore vs Ab-ARA
[10] = system: B. thailandensis Bt-RHA (wild type, empty cassette); assay: microbe, parasite or virus in culture; type: cell-based
[11] = system: B. cepacia Bc-RHA-BtPore (hyperporinated); assay: microbe, parasite or virus in culture; type: cell-based; details: for MIC: Bc-RHA-BtPore
[12] = system: P. aeruginosa PaΔ3-LAC (efflux-deficient); assay: microbe, parasite or virus in culture; type: cell-based; details: at least three independent measurements
[13] = system: A. baumannii cells (Ab-ARA and derivatives); assay: Fluorescent probe uptake assay, A. baumannii strains; details: AbΔ3-ARA vs Ab-ARA, fluorescence
[14] = system: B. thailandensis Bt-RHA-BtPore (hyperporinated); assay: microbe, parasite or virus in culture; type: cell-based
[15] = system: A. baumannii AbΔ3-ARA (efflux-deficient); assay: microbe, parasite or virus in culture; type: cell-based; details: for MIC: AbΔ3-ARA, at least three independent measurements
[16] = system: B. thailandensis BtΔ2-RHA-BtPore (efflux-deficient, hyperporinated); assay: microbe, parasite or virus in culture; type: cell-based
[17] = system: B. cepacia Bc-RHA (wild type, empty cassette); assay: microbe, parasite or virus in culture; type: cell-based
[18] = PaΔ3-LAC-EcPore, at least three independent measurements
[19] = at least three independent measurements
[20] = Pseudomonas aeruginosa, read-out: MIC
[21] = Acinetobacter baumannii, read-out: MIC
[22] = Pseudomonas aeruginosa, PaΔ3-LAC-EcPore, at least three independent measurements, read-out: MIC
[23] = Acinetobacter baumannii, at least three independent measurements, read-out: MIC
[24] = Burkholderia cepacia, read-out: MIC

Compound | MIC [1] [µg/mL] | MIC [2] [µg/mL] | MIC [3] [µg/mL] | MIC [4, 18] [µg/mL] | MIC [6] [µg/mL] | MIC [8] | MIC [9, 19] [µg/mL] | MIC [10] | MIC [12] [µg/mL] | MIC [14] | MIC [15] [µg/mL] | MIC [11] [µg/mL] | MIC [16] [µg/mL] | MIC [17] [µg/mL] | other results
CCOc1ccc(-c2nc3ccc(-c4nc5ccc(N6CCN(C)CC6)cc5[nH]4)cc3[nH]2)cc1 [HT, Hoechst 33342] | 64 (≈ 141 µM) | >64 | 25 (≈ 55.2 µM) | 2 | 3.125 (≈ 6.91 µM) | 1 µM | 0.025 | >64 µM | 16 (≈ 35.4 µM) | >64 µM | 0.78 (≈ 1.72 µM) |  |  |  | Fold decrease of MIC (potentiation) by hyperporination ([1]; Pae: PAO1-LAC-EcPore vs parent): 4 to 8 fold; MIC ([4]; PΔ3-LAC-EcPore): 2.0 µM; Change of intracellular accumulation of probe by inactivation of efflux ([5]; PΔ3-LAC vs PAO1-LAC, fluorescence): lower than those in the parent PAO1-LAC; Fold decrease of MIC (potentiation) by hyperporination ([6]; Abau: Ab-ARA-EcPore vs parent): 4 to 8 fold and 8 fold; Change of intracellular accumulation of probe by inactivation of efflux [7]: up to 2 fold; MIC [9]: 0.025 to 0.05 µM; Fold change of MIC by efflux inactivation plus hyperporination [9]: 1000 fold; Fold decrease of MIC (potentiation) by hyperporination ([11]; Bc: Bc-RHA-BtPore vs parent): > 4 fold; Change of intracellular accumulation of probe by inactivation of efflux [13]: up to 2 fold; Fold reduction of MIC by inactivation of efflux ([15]; Abau: AbΔ3-ARA vs Ab-ARA): 32 fold
c1ccc(Nc2cccc3ccccc23)cc1 [NPN, N-phenyl-1-naphthylamine] |  |  |  |  |  |  |  |  |  |  |  |  |  |  | Probe levels in efflux-deficient hyperporinated cells vs parent ([5]; PΔ3-LAC-EcPore vs PAO1-LAC): only slightly higher than in PAO1-LAC cells; Change of intracellular accumulation of probe by inactivation of efflux [7]: higher levels of NPN accumulation than in hyperporinated cells; Change of intracellular accumulation of probe by inactivation of efflux [13]: higher levels of NPN accumulation than in hyperporinated cells
Oc1cc(Cl)ccc1Oc1ccc(Cl)cc1Cl [Triclosan] |  |  |  |  |  |  |  |  |  |  |  |  |  |  | MIC [1, 20]: 1020 µg/mL (≈ 3540 µM); MIC [2, 20]: 1020 µg/mL (≈ 3540 µM); MIC [3, 21]: 0.125 µg/mL (≈ 0.432 µM); MIC [4, 22]: 8 µg/mL; MIC [6, 21]: 0.063 µg/mL (≈ 0.218 µM); MIC ([8]; Burkholderia thailandensis): 0.12 µg/mL; MIC [9, 23]: 0.001 µg/mL; MIC ([10]; Burkholderia thailandensis): 120 µg/mL; MIC [11, 24]: 60 µg/mL (≈ 207 µM); MIC ([16]; Burkholderia thailandensis): 0.06 µg/mL (≈ 0.207 µM); MIC [12, 20]: 32 µg/mL (≈ 111 µM); MIC [17, 24]: > 120 µg/mL; MIC ([14]; Burkholderia thailandensis): 30 µg/mL; MIC [15, 21]: 0.002 µg/mL (≈ 0.00691 µM)
CN[C@H](CC(C)C)C(=O)N[C@H]1C(=O)N[C@@H](CC(N)=O)C(=O)N[C@H]2C(=O)N[C@H]3C(=O)N[C@H](C(=O)N[C@H](C(=O)O)c4cc(O)cc(O)c4-c4cc3ccc4O)[C@H](O)c3ccc(c(Cl)c3)Oc3cc2cc(c3O[C@@H]2O[C@H](CO)[C@@H](O)[C@H](O)[C@H]2O[C@H]2C[C@](C)(N)[C@H](O)[C@H](C)O2)Oc2ccc(cc2Cl)[C@H]1O [Vancomycin] |  |  |  |  |  |  |  |  |  | 256 to 512 µg/mL |  |  |  |  | MIC [1, 20]: 128 µg/mL (≈ 88.3 µM); MIC [2, 20]: 1020 µg/mL (≈ 707 µM); MIC [3, 21]: 1020 µg/mL (≈ 707 µM); MIC [4, 22]: 64 µg/mL; MIC [6, 21]: 128 µg/mL (≈ 88.3 µM); MIC ([8]; Burkholderia thailandensis): > 1020 µg/mL; MIC [9, 23]: 128 µg/mL; MIC ([10]; Burkholderia thailandensis): > 1020 µg/mL; MIC [11, 24]: 8 µg/mL (≈ 5.52 µM); MIC ([16]; Burkholderia thailandensis): 4 to 8 µg/mL (≈ 2.76 to 5.52 µM); MIC [12, 20]: 1020 µg/mL (≈ 707 µM); MIC [17, 24]: > 1020 µg/mL; MIC [15, 21]: 1020 µg/mL (≈ 707 µM)
Cc1c(N)nc([C@H](CC(N)=O)NC[C@H](N)C(N)=O)nc1C(=O)N[C@H](C(=O)N[C@H](C)[C@@H](O)[C@H](C)C(=O)N[C@H](C(=O)NCCC1=N[C@@H](c2nc(C(=O)NCCCCN=C(N)N)cs2)CS1)[C@@H](C)O)[C@@H](O[C@@H]1O[C@@H](CO)[C@@H](O)[C@H](O)[C@@H]1O[C@H]1O[C@H](CO)[C@@H](O)[C@H](OC(N)=O)[C@@H]1O)c1cnc[nH]1 [Zeocin] | 32 to 64 | 512 (≈ 359 µM) | 8 (≈ 5.6 µM) | 2 | 0.5 (≈ 0.35 µM) | 2 µg/mL | 0.125 | 512 µg/mL | 16 (≈ 11.2 µM) | 128 µg/mL | 1 (≈ 0.701 µM) | 128 (≈ 89.7 µM) | 0.12 (≈ 0.0841 µM) | >1024 | Fold change of MIC by efflux inactivation plus hyperporination ([4]; PaeΔ3-LAC-Pore vs parent): 256 fold; Fold change of MIC by efflux inactivation plus hyperporination [9]: 64 fold; Fold change of MIC by efflux inactivation plus hyperporination [16]: 4096 fold
Polymyxin B | 1.5 | 1.5 | 0.25 | 1.5 | 0.25 | >1024 µg/mL | 0.125 | >1024 µg/mL | 1.5 | >1024 µg/mL | 0.125 | 512 | 128 | >1024 | 
Tobramycin [Tobramycin + Mg^2+] | 1 | 2 | 4 | 0.5 | 2 | 1 µg/mL | 2 | 64 µg/mL | 0.5 | 64 µg/mL | 4 | 4 | 1 | 32 to 64 | 
